Where a name gives a salt, the structure may show the parent alone. Read-outs that look alike come from different tables or passages of the source.
Assays:
[1] = target: T1, α7-subtype of nicotinic receptors (Rattus norvegicus, UniProt Q05941); assay: In vitro inhibition of 3H-α-bungarotoxine binding in rat brain
T1 construct: Cerebral cortices from male Wistar rats (150-250 g) are homogenised; from tissue; host or cells: rat cerebral cortex membrane homogenate

serotonin transporter = target: T2, serotonin transporter (Rattus norvegicus, UniProt P31652); assay: In vitro inhibition of 3H-5-hydroxytryptamine uptake in cortical synaptosomes; type: biochemical; conditions: 1 nM 3H-5-HT, 30 minutes at 37° C
T2 construct: Cerebral cortices from male Wistar rats (150-200 g) are homogenized; from tissue; host or cells: rat cerebral cortex synaptosomes (P2 pellet)
T2 sequence (P31652 whole entry): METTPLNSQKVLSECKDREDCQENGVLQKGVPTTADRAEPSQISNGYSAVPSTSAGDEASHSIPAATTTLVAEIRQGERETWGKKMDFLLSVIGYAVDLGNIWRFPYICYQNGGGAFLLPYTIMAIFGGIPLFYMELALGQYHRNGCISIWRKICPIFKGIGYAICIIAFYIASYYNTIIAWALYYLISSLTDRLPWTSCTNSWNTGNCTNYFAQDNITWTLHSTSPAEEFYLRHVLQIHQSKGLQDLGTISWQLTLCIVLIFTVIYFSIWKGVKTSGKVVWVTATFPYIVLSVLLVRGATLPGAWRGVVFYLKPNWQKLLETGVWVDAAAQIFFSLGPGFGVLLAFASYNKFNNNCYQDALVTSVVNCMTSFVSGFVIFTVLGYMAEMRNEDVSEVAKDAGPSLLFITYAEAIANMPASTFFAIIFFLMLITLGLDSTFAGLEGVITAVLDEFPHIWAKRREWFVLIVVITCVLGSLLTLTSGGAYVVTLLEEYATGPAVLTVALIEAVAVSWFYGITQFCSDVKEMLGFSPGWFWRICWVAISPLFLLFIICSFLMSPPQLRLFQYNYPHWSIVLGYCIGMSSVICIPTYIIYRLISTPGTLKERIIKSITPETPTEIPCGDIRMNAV
Protocol: In Vitro Inhibition of ^3H-5-Hydroxytyptamine Uptake in Cortical Synaptosomes
Serotonin transporters/uptake sites on nerve terminals presumably function to terminate neuronal signaling by removing serotonin from the synaptic cleft. The activity of the serotonin transporter integral protein can be measured in vitro by synaptosomal uptake of ^3H-5-hydroxytryptamine (5-HT, serotonin).
Preparations are performed at 0-4° C. Cerebral cortices from male Wistar rats (150-200 g) are homogenized for 5-10 seconds in 100 volumes of ice-cold 0.32 M sucrose containing 1 mM pargyline, using a motor driven teflon pestle in a glass homogenizing vessel. Monoamine oxidase activity is inhibited in the presence of pargyline.
The homogenate is subjected to centrifugation at 1000×g for 10 minutes. The resulting supernatant is then centrifuged at 27,000×g for 50 minutes and the supernatant is discarded. […]
Aliquots of 4.0 ml tissue suspension are added to 100 μl of test solution and 100 μl of ^3H-5-HT (1 nM, final concentration), mixed and incubated for 30 minutes at 37° C. Non-specific uptake is determined using Citalopram (1 μM, final concentration, available from Lundbeck, Denmark). […]
The amount of radioactivity on the filters is determined by conventional liquid scintillation counting. Specific uptake is calculated as the difference between total uptake and non-specific uptake. […]

T1 sequence (Q05941 23-502): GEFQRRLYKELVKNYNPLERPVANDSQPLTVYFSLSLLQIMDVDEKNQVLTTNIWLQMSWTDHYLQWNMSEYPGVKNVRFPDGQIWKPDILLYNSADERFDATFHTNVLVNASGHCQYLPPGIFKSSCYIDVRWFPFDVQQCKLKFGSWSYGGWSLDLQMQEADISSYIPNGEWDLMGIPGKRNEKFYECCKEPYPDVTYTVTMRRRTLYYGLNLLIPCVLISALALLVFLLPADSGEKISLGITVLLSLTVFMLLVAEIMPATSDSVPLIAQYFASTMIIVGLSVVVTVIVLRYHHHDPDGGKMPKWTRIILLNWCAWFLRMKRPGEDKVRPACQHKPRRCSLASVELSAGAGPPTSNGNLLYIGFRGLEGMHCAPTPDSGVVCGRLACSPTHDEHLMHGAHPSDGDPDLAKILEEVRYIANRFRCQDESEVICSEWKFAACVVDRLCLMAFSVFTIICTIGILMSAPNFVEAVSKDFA

| Structure (SMILES) | IC50 ([1]; rat cerebral cortex homogenate, 2 nM 3H-α-bungarotoxine, 2 hours at 37° C, read-out: Inhibition of 3H-α-Bungarotoxine Binding IC50) [nM] | IC50 (serotonin transporter) [nM] | IC50 [1] [nM] |
| --- | --- | --- | --- |
| C=CCN1C2C=C(C3=Cc4ccccc4S3(=O)=O)CC1CC2 (racemic) [Compound 3, (±)-3-(2-Benzo[b]thiophenyl-1,1-dioxide)-8-allyl-8-azabicyclo[3.2.1]oct-2-ene] | 850 |  |  |
| CN1C2C=C(C3=Cc4ccccc4S3(=O)=O)CC1CC2 (racemic) [Compound 2, (±)-3-2-Benzo[b]thiophenyl-1,1-dioxide)-8-methyl-8-azabicyclo[3.2.1]oct-2-ene fumaric acid salt] |  | 660 | 18 |
| O=S1(=O)C(C2=CC3CCC(C2)N3)=Cc2ccccc21 (racemic) [Compound 1, (±)-3-(2-Benzo[b]thiophenyl-1,1-dioxide)-8-H-8-azabicyclo[3.2.1]oct-2-ene fumaric acid salt] |  | 190 |  |
